The source of these data is ChEMBL document CHEMBL1255458, “Worldwide experience with the use of doripenem against extended-spectrum-beta-lactamase-producing and ciprofloxacin-resistant Enterobacteriaceae: analysis of six phase 3 clinical studies” (2010).

In brackets after ≈: the same amount, converted by molar mass. Bounds are passed on as bounds.

Experiment [1] concerns Enterobacteriaceae. Briefly: Antibacterial activity against extended spectrum beta-lactamase-producing Enterobacteriaceae clinical isolates by broth microdilution method. In kind it is functional. For orientation: Dilution methods test growth across graded concentrations, often in twofold steps.
For experiment [2], the system named is Enterobacteriaceae. Briefly: Antibacterial activity against Enterobacteriaceae by broth microdilution method. It counts as functional.
Experiment [3] has as its system Enterobacteriaceae. Briefly: Antibacterial activity against ciprofloxacin-resistant Enterobacteriaceae clinical isolates by broth microdilution method. It counts as functional.
Experiment [4] relates to Enterobacteriaceae. In words: Antibacterial activity against extended spectrum beta-lactamase-producing Enterobacteriaceae clinical isolates isolated from patient with complicated intra-abdominal infection assessed as cure rate at test-of-cure visit by mMITT analysis. It counts as functional.
Experiment [5] deals with Enterobacteriaceae. In words: Antibacterial activity against extended spectrum beta-lactamase-producing Enterobacteriaceae clinical isolates isolated from patient with complicated urinary tract infection assessed as cure rate at test-of-cure visit. It counts as functional, Urine.
Experiment [6] concerns Enterobacteriaceae. Briefly: Antibacterial activity against Enterobacteriaceae clinical isolates isolated from patient with complicated urinary tract infection assessed as cure rate at test-of-cure visit by mMITT analysis. In kind it is functional, Urine.
Experiment [7] relates to Enterobacteriaceae. Briefly: Antibacterial activity against ciprofloxacin-resistant Enterobacteriaceae clinical isolates isolated from patient with complicated intra-abdominal infection assessed as cure rate at test-of-cure visit. It counts as functional.
Experiment [8] relates to Enterobacteriaceae. Briefly: Antibacterial activity against ciprofloxacin-resistant Enterobacteriaceae clinical isolates isolated from patient with urinary tract infection assessed as cure rate at test-of-cure visit by mMITT analysis. It counts as functional, Urine.
Experiment [9] relates to Klebsiella pneumoniae. Briefly: Antibacterial activity against […] Klebsiella pneumoniae by broth microdilution method. It counts as functional.
For experiment [10], the system named is Enterobacteriaceae. Briefly: Antibacterial activity against Enterobacteriaceae clinical isolates isolated from patient with complicated urinary tract infection assessed as cure rate at test-of-cure visit. In kind it is functional, Urine.
Experiment [11] deals with Enterobacteriaceae. In words: Antibacterial activity against Enterobacteriaceae clinical isolates isolated from patient with complicated intra-abdominal infection assessed as cure rate at test-of-cure visit by mMITT analysis. It counts as functional.
Experiment [12] relates to Enterobacteriaceae. In words: Antibacterial activity against extended spectrum beta-lactamase-producing Enterobacteriaceae clinical isolates isolated from patient with urinary tract infection assessed as cure rate at test-of-cure visit. In kind it is functional, Urine.
For experiment [13], the system named is Enterobacteriaceae. In words: Antibacterial activity against extended spectrum beta-lactamase-producing Enterobacteriaceae clinical isolates isolated from patient with complicated intra-abdominal infection assessed as cure rate at test-of-cure visit. In kind it is functional.
Experiment [14] concerns Enterobacteriaceae. Briefly: Antibacterial activity against Enterobacteriaceae clinical isolates isolated from patient with nosocomial pneumonia assessed as cure rate at test-of-cure visit. It counts as functional.
Experiment [15] deals with Enterobacteriaceae. In words: Antibacterial activity against ciprofloxacin-resistant Enterobacteriaceae clinical isolates isolated from patient with complicated intra-abdominal infection assessed as cure rate at test-of-cure visit by mMITT analysis. It counts as functional.
Experiment [16] has as its system Enterobacteriaceae. In words: Antibacterial activity against extended spectrum beta-lactamase-producing Enterobacteriaceae clinical isolates isolated from patient with nosocomial pneumonia assessed as cure rate at test-of-cure visit. In kind it is functional.
Experiment [17] concerns Enterobacteriaceae. Briefly: Antibacterial activity against Enterobacteriaceae clinical isolates isolated from patient with complicated intra-abdominal infection assessed as cure rate at test-of-cure visit. It counts as functional.
Experiment [18] has as its system Enterobacteriaceae. Briefly: Antibacterial activity against ciprofloxacin-resistant Enterobacteriaceae clinical isolates isolated from patient with urinary tract infection assessed as cure rate at test-of-cure visit. It counts as functional, Urine.
Experiment [19] has as its system Enterobacteriaceae. Briefly: Antibacterial activity against ciprofloxacin-resistant Enterobacteriaceae clinical isolates isolated from patient with complicated urinary tract infection assessed as cure rate at test-of-cure visit by mMITT analysis. It counts as functional, Urine.
The subject of experiment [20] is Enterobacteriaceae. In words: Antibacterial activity against extended spectrum beta-lactamase-producing Enterobacteriaceae clinical isolates isolated from patient with complicated urinary tract infection assessed as cure rate at test-of-cure visit by mMITT analysis. In kind it is functional, Urine.
The subject of experiment [21] is Enterobacteriaceae. Briefly: Antibacterial activity against extended spectrum beta-lactamase-producing Enterobacteriaceae clinical isolates isolated from patient with urinary tract infection assessed as cure rate at test-of-cure visit by mMITT analysis. It counts as functional, Urine.
The subject of experiment [22] is Enterobacteriaceae. Briefly: Antibacterial activity against ciprofloxacin-resistant Enterobacteriaceae clinical isolates isolated from patient with nosocomial pneumonia assessed as cure rate at test-of-cure visit. It counts as functional.
Experiment [23] concerns Enterobacteriaceae. Briefly: Antibacterial activity against Enterobacteriaceae clinical isolates isolated from patient with nosocomial pneumonia assessed as cure rate at test-of-cure visit by mMITT analysis. In kind it is functional.
In experiment [24] the test system is Enterobacteriaceae. Briefly: Antibacterial activity against Enterobacteriaceae clinical isolates isolated from patient with urinary tract infection assessed as cure rate at test-of-cure visit by mMITT analysis. It counts as functional, Urine.
Experiment [25] relates to Enterobacteriaceae. Briefly: Antibacterial activity against extended spectrum beta-lactamase-producing Enterobacteriaceae clinical isolates isolated from patient with nosocomial pneumonia assessed as cure rate at test-of-cure visit by mMITT analysis. It counts as functional.
In experiment [26] the test system is Enterobacteriaceae. Briefly: Antibacterial activity against Enterobacteriaceae clinical isolates isolated from patient with urinary tract infection assessed as cure rate at test-of-cure visit. In kind it is functional, Urine.
Experiment [27] deals with Enterobacteriaceae. Briefly: Antibacterial activity against ciprofloxacin-resistant Enterobacteriaceae clinical isolates isolated from patient with nosocomial pneumonia assessed as cure rate at test-of-cure visit by mMITT analysis. In kind it is functional.
The subject of experiment [28] is Enterobacteriaceae. In words: Antibacterial activity against ciprofloxacin-resistant Enterobacteriaceae clinical isolates isolated from patient with complicated urinary tract infection assessed as cure rate at test-of-cure visit. In kind it is functional, Urine.

One may read the MIC50 as an inhibitory concentration at the 50% level, which refers to growth in some studies and to a panel of isolates in others. Higher therefore signals weaker potency. As a reminder, the MIC90 is the lowest concentration that inhibits either 90% of growth or 90% of the strains tested, depending on the study. Read a high MIC90 as weaker potency. With `NCC[C@H](O)C(=O)N[C@@H]1C[C@H](N)[C@@H](O[C@H]2O[C@H](CN)[C@@H](O)[C@H](O)[C@H]2O)[C@H](O)[C@H]1O[C@H]1O[C@H](CO)[C@@H](O)[C@H](N)[C@H]1O` [AMIKACIN], the MIC50 in [1] was found to be 8 µg/mL (≈ 13.7 µM); in experiment [2] it was 2 µg/mL (≈ 3.42 µM); in [3], 4 µg/mL (≈ 6.83 µM). Also, the MIC90 is above 64 µg/mL in [1] and 8 µg/mL (≈ 13.7 µM) in [2].
With `CC(C)(O/N=C(\C(=O)N[C@@H]1C(=O)N2C(C(=O)[O-])=C(C[n+]3ccccc3)CS[C@H]12)c1csc(N)n1)C(=O)O` [CEFTAZIDIME], the MIC50 in experiment [1] amounted to 32 µg/mL (≈ 58.5 µM); in experiment [2], 0.12 µg/mL (≈ 0.22 µM); in [3], 1 µg/mL (≈ 1.83 µM). For the same compound, the MIC90 was above 32 µg/mL in [1], 0.5 µg/mL (≈ 0.915 µM) in experiment [2] and above 32 µg/mL in [3].
Consider `C[C@@H](O)[C@H]1C(=O)N2C(C(=O)O)=C(S[C@@H]3CN[C@H](CNS(N)(=O)=O)C3)[C@H](C)[C@H]12` [DORIPENEM], for which the Activity in experiment [4] amounted to 75%; in experiment [5] it was 60%; in [6] it was 74.3%; in experiment [7], 82.4%; in [8], 61.9%; in [10], 83.5%. Besides, the Activity in experiment [11] is recorded as 77.3%; in experiment [12], 72.7%; in [13] it was 71.4%; in experiment [14], 69.1%; in experiment [15], 83.3%; in [16], 75%. Further, the Activity in experiment [17] was 84.4%; in [18], 68.1%; in experiment [19], 53.3%; in experiment [20], 50%; in experiment [21], 66.7%; in [22] it was 70%. Further, the Activity in [23] is given as 59.6%; in experiment [24] it was 73.6%; in experiment [25], 64.3%; in experiment [26], 82.3%. Further, the figures for the MIC50 in [9], in [1] and in experiment [3] were at most 0.03 µg/mL, 0.06 µg/mL (≈ 0.143 µM) and 0.03 µg/mL (≈ 0.0713 µM), respectively. In addition, the MIC90 in [9] was determined as 0.12 µg/mL (≈ 0.285 µM); in [1], 0.25 µg/mL (≈ 0.595 µM); in experiment [3], 0.5 µg/mL (≈ 1.19 µM).
On to `C[C@@H](O)[C@H]1C(=O)N2C(C(=O)O)=C(S[C@@H]3CN[C@H](C(=O)Nc4cccc(C(=O)O)c4)C3)[C@H](C)[C@H]12` [ERTAPENEM], for which the MIC50 in experiment [9] was at most 0.03 µg/mL; in [1], 0.12 µg/mL (≈ 0.252 µM); in experiment [3], at most 0.03 µg/mL. Moreover, the MIC90 in experiment [9] is at most 0.03 µg/mL; in experiment [1], 1 µg/mL (≈ 2.1 µM); in experiment [3], 4 µg/mL (≈ 8.41 µM).
For `C[C@@H](O)[C@H]1C(=O)N2C(C(=O)O)=C(SCCNC=N)C[C@H]12` [IMIPENEM ANHYDROUS], the MIC50 in experiment [9], in experiment [1] and in [3] was 0.12 µg/mL (≈ 0.401 µM) throughout. Further, the figures for the MIC90 in experiment [9], in [1] and in experiment [3] were 1 µg/mL (≈ 3.34 µM), 0.5 µg/mL (≈ 1.67 µM) and 1 µg/mL (≈ 3.34 µM), respectively. In addition, the Activity turned out to be 83.3% in experiment [27]; 64.4% in experiment [14]; 100% in experiment [16]; 61.4% in experiment [23]; 100% in experiment [25].
For the compound `C[C@H]1COc2c(N3CCN(C)CC3)c(F)cc3c(=O)c(C(=O)O)cn1c23.C[C@H]1COc2c(N3CCN(C)CC3)c(F)cc3c(=O)c(C(=O)O)cn1c23.O` [LEVOFLOXACIN], the Activity in experiment [5] was found to be 20%; in [6], 75.2%; in experiment [28], 21.9%; in [10] it was 85.4%; in [19], 23.8%; in experiment [20], 14.3%. Also, the MIC50 is 8 µg/mL in [1], at most 0.03 µg/mL in [2] and 16 µg/mL in experiment [3]. Moreover, the MIC90 in experiment [1] was determined as 32 µg/mL; in experiment [2], 8 µg/mL; in experiment [3], 64 µg/mL.
For the compound `C[C@@H](O)[C@H]1C(=O)N2C(C(=O)O)=C(S[C@@H]3CN[C@H](C(=O)N(C)C)C3)[C@H](C)[C@H]12` [MEROPENEM], the Activity in experiment [4] is recorded as 62.5%; in experiment [7], 91.7%; in experiment [11] it was 77.9%; in experiment [13], 100%; in experiment [15], 81.3%; in [17], 85%. For the same compound, the values for the MIC50 in experiment [9], in [1] and in experiment [3] were at most 0.03 µg/mL, at most 0.03 µg/mL and 0.03 µg/mL (≈ 0.0782 µM), respectively. The MIC90 in [9] was determined as 0.06 µg/mL (≈ 0.156 µM); in [1] it was 0.12 µg/mL (≈ 0.313 µM); in experiment [3], 0.25 µg/mL (≈ 0.652 µM).
